Patent US20230391727A1, “ANALOGUES OF PENTAMIDINE AND METHODS FOR TREATING INFECTIONS” (Auransa Inc., priority 2020, published 2023)

Columns and labels:
Experiment in all cases: Checkerboard/MIC assay with rifampicin
Assay type in all cases: cell-based
[1] = system: Citrobacter freundii (ATCC 8090)
Description: (§1) The 17 test strains/isolates were: (1) Serratia marcescens (ATCC 13880); (2) Salmonella typhimurium (ATCC 13311); (3) Salmonella choleraesuis (ATCC 10708); (4) Acinetobacter baumannii (ATCC BAA-1605); (5) A. baumannii (ATCC 17978); (6) A. baumannii (FDA-CDC AR-BANK#0088); (7) Citrobacter freundii (ATCC 8090); (8) Pseudomonas aeruginosa (BCCM 27647); (9) P. aeruginosa (BCCM 27648); (10) Escherichia coli (ATCC 25922); (11) E. coli (ATCC 10536); (12) Stenotrophomonas maltophilia (ATCC 13637); (13) Enterobacter cloacae (ATCC BAA-1143); (14) E. cloacae (ATCC 13047); (15) E. aerogenes (ATCC 13048); (16) Klebsiella pneumoniae (NCTC 13438); and (17) Klebsiella pneumoniae (FDA-CDC AR-BANK#0160). These bacterial strains were obtained from the American Type Culture Collection (ATCC, Rockville, MD, USA); Belgian Coordinated Collections of Microorganisms; The Culture Collections of Public Health England, UK; and FDA-CDC anticimrobial Resistance Isolate Bank, USA, and cryopreserved as single-use frozen working stock cultures which were stored at −80° C.
(§2) The 17 test strains were grown on nutrient agar or tryptic soy agar (TSA) medium as below. Colonies were suspended in phosphate buffered saline (PBS) pH 7.4. The absorbance of the bacterial suspension was measured with a spectrophotometer at OD620nm, and then the suspension was adjusted to 1-2×10^8 CFU/mL in PBS. The adjusted suspension was further diluted 1:500 in cation-adjusted Mueller-Hinton Broth. Each well contained approximately 5×10^5 CFU/mL. […] The testing inoculum was prepared within minutes before adding to wells of the test plate.
(§3) Compound 3 was tested in 8 points by two-fold serial titrations from 100 to 0.78 μg/mL. […] Assay plates were incubated and MIC endpoints were read as complete inhibition of visual growth. The checkerboard combination analysis was performed following the MIC testing protocol to identify potential synergistic, indifferent or antagonistic interactions. The analysis also included each test substance alone at the same concentration ranges.
(§4) FIC (Fraction Inhibitory Concentration) and FIC Index (FICI) values for each test condition and the average of FICI values of all pairwise combinations were calculated to determine if synergy or antagonism existed between the two substances. The FIC index was determined by calculating the sum of the ratios of MICs (minimum inhibitory concentrations) for both substances. […] Synergy is defined as the FICI (Σ)≤0.5; additivity or indifference are defined as the FICI (Σ)>0.5 to ≤4; antagonism is defined as the FICI (Σ)>4. The two fold of highest test article concentration was used for FIC value calculations in the circumstances where MIC values were greater than the highest test article concentration.

[2] = system: Enterobacter cloacae (ATCC BAA-1143); conditions: Enterobacter cloacae BAA-1143
Description: as §1, §2, §3, §4

[3] = system: A. baumannii (ATCC 17978); conditions: Acinetobacter baumannii ATCC 17978
Description: as §1, §2, §3, §4

[4] = system: A. baumannii (FDA-CDC AR-BANK#0088); conditions: Acinetobacter baumannii AR-BANK 0088
Description: as §1, §2, §3, §4

[5] = system: Salmonella typhimurium (ATCC 13311); conditions: Salmonella typhimurium ATCC13311
Description: as §1, §2, §3, §4

[6] = system: P. aeruginosa (BCCM 27648); conditions: Pseudomonas aeruginosa BCCM27648
Description: as §1, §2, §3, §4

[7] = system: Pseudomonas aeruginosa (BCCM 27647); conditions: Pseudomonas aeruginosa BCCM27647
Description: as §1, §2, §3, §4

[8] = system: Klebsiella pneumoniae (NCTC 13438)
Description: as §1, §2, §3, §4

E. cloacae (ATCC 13047) = conditions: Enterobacter cloacae ATCC-13047
Description: as §1, §2, §3, §4

[9] = system: Stenotrophomonas maltophilia (ATCC 13637)
Description: as §1, §2, §3, §4

[10] = system: E. aerogenes (ATCC 13048); conditions: Enterobacter aerogenes ATCC-13048
Description: as §1, §2, §3, §4

[11] = system: Serratia marcescens (ATCC 13880)
Description: as §1, §2, §3, §4

E. coli (ATCC 10536) = conditions: Escherichia coli ATCC 10536
Description: as §1, §2, §3, §4

[12] = system: Salmonella choleraesuis (ATCC 10708); conditions: Salmonella choleraesuis ATCC 10708
Description: as §1, §2, §3, §4

[13] = system: Acinetobacter baumannii (ATCC BAA-1605); conditions: Acinetobacter baumannii BAA-1605
Description: as §1, §2, §3, §4

[14] = compound 3 in combination with rifampicin

N=C(N)c1ccc(CC[C@H]2CCC[C@@H](CCc3ccc(C(=N)N)cc3)C2)cc1 [Compound 3, 4,4′-(2,2′-((1R,3S)-cyclohexane-1,3-diyl)bis(ethane-2,1-diyl))dibenzimidamide]
MIC ([1]; ATCC8090, substance alone): 100 µg/mL
Combination Result [1, 14]: synergy (Synergy is defined as the FICI (Σ)≤0.5)
FICI (Average) [1, 14]: 0.19
Combination Result [2, 14]: synergy (Synergy is defined as the FICI (Σ)≤0.5)
FICI (Average) [2, 14]: 0.19
MIC ([2]; substance alone): 100 µg/mL
MIC ([3]; ATCC17978, substance alone): 25 µg/mL
Combination Result [3, 14]: synergy (Synergy is defined as the FICI (Σ)≤0.5)
FICI (Average) [3, 14]: 0.27
Combination Result [4, 14]: synergy (Synergy is defined as the FICI (Σ)≤0.5)
FICI (Average) [4, 14]: 0.31
MIC ([4]; substance alone): 25 µg/mL
MIC ([5]; Salmonella enterica, substance alone): 12.5 µg/mL
Combination Result [5, 14]: synergy (Synergy is defined as the FICI (Σ)≤0.5)
FICI (Average) [5, 14]: 0.34
Combination Result [6, 14]: additivity/
FICI (Average) [6, 14]: 1.03
MIC ([6]; substance alone): 25 µg/mL
Combination Result [7, 14]: additivity/
FICI (Average) [7, 14]: 1.03
MIC ([7]; substance alone): 25 µg/mL
MIC ([8]; NCTC13438, substance alone): 50 µg/mL
Combination Result [8, 14]: synergy (Synergy is defined as the FICI (Σ)≤0.5)
FICI (Average) [8, 14]: 0.22
MIC (E. cloacae (ATCC 13047); ATCC13047, substance alone): 100 µg/mL
Combination Result (E. cloacae (ATCC 13047); [14]): synergy (Synergy is defined as the FICI (Σ)≤0.5)
FICI (Average) (E. cloacae (ATCC 13047); [14]): 0.19
MIC ([9]; ATCC13637, substance alone): 12.5 µg/mL
Combination Result [9, 14]: synergy (Synergy is defined as the FICI (Σ)≤0.5)
FICI (Average) [9, 14]: 0.39
MIC ([10]; Klebsiella aerogenes, ATCC13048, substance alone): 100 µg/mL
Combination Result [10, 14]: synergy (Synergy is defined as the FICI (Σ)≤0.5)
FICI (Average) [10, 14]: 0.19
MIC ([11]; ATCC13880, substance alone): > 100 µg/mL
Combination Result [11, 14]: synergy (Synergy is defined as the FICI (Σ)≤0.5)
FICI (Average) [11, 14]: 0.21
MIC (E. coli (ATCC 10536); ATCC10536, substance alone): 6.25 µg/mL
Combination Result (E. coli (ATCC 10536); [14]): synergy (Synergy is defined as the FICI (Σ)≤0.5)
FICI (Average) (E. coli (ATCC 10536); [14]): 0.48
MIC ([12]; Salmonella enterica, substance alone, read-out: MIC): 50 µg/mL
Combination Result [12, 14]: synergy (Synergy is defined as the FICI (Σ)≤0.5)
FICI (Average) [12, 14]: 0.32
Combination Result [13, 14]: synergy (Synergy is defined as the FICI (Σ)≤0.5)
FICI (Average) [13, 14]: 0.31
MIC ([13]; substance alone): 25 µg/mL
